Patent publication US20160082105A1, “Antibody Buffering of a Ligand in Vivo” (ARROWSMITH TECHNOLOGIES CORPORATION, priority 2004, published 2016)
Where two headings read alike, the source gives them in different places.

Columns and labels:
[1] = Experimental: Samples were prepared for injection: 4.54 nmol anti-Ox antibody and 2.27 nmol Ox; 4.54 nmol D1.3 control antibody and 2.27 nmol Ox; or no antibody and 2.27 nmol Ox. Each sample was diluted to 1 ml with sterile PBS. The samples were warmed to 37° C., and then infused over 1 minute through the jugular vein cannula in Sprague-Dawley rats as described above. At various timepoints, 0.45 ml of blood was withdrawn and immediately centrifuged to separate out the plasma. 100 μl of plasma were counted directly by placing the plasma into 5 ml of Scintiverse II and counting in a Beckman LS6500 Scintillation Counter. 100 μl plasma was used in bound vs. free Ox experiments described below. For some rats, 0.1 ml of blood minus plasma was analyzed. These samples were first decolorized by incubating at 40° C. in 0.3 ml of Scintigest (Fisher Scientific):isopropanol (1:2 v/v) for one hour. Then 0.2 ml of 30% H2O2 was added dropwise, and the solution was incubated at room temperature for 15 minutes. Pipetting up and down was needed to break up some clumps. The solution was incubated at 40° C. before placing it into 5 ml of Scintiverse II. The samples were allowed to sit overnight before counting to reduce chemiluminescence. Control samples were prepared using known amounts of Ox to aid in analysis.
The rat anti-mouse kappa antibody 187.1 (see Example 1) was isolated from spent culture medium and purified by passage over a Protein A-Sepharose affinity column. Ten g of CNBr-activated Sepharose 4 Fast Flow (Amersham Biosciences) were washed and coupled with 187.1 according to manufacturer's protocol. Two mg 187.1 per 10 g of swelled resin were used.
During the antibody buffering experiments, 100 μl of plasma was loaded onto the 187.1 column immediately after centrifugation. Three ml of PBS followed by three ml of 0.2 M glycine (pH 2.5) were then applied onto the column as described in Example 1. All PBS fractions and all glycine fractions were collected separately for each timepoint and dried down in the SpeedVac. The residue was resuspended in 150 μl PBS and then transferred to a scintillation vial with 5 ml Scintiverse II for counting.
Samples of NQ11/7.12 and Ox were prepared and infused into Sprague-Dawley rats as described above. Blood samples (0.4 ml) were taken at time 1, 10, 20, 50, 90, and 120 minutes. 100 μl plasma were counted directly and 100 μl were placed on a 187.1 column to separate bound and free Ox. At 24 hours and again at 48 hours following the first administration, 2.27 nmol Ox in 0.5 ml PBS was infused over 1 minute through the jugular cannula. Timepoints were again taken and analyzed as above.
Bound and free forms of Ox in plasma fractions from the animals were separated on an affinity column. […] An immobilized rat anti-mouse kappa antibody was used to trap antibody-Ox complexes while free Ox eluted from the column with a PBS wash (free Ox fraction).

[2] = Antibody buffering in plasma: total Ox after jugular infusion; type: in vivo, rat; conditions: for t1/2 of Ox (FIG. 6): 5 animals per point
Excerpt: Timepoints were again taken and analyzed as above.
To determine its pharmacokinetic behavior, tritiated Ox was infused into a rat through a jugular cannula, and elimination of Ox was followed through blood sampling, separation of the plasma by centrifugation, and scintillation counting of the plasma.

[3] = Ox administered alone or with D1.3
[4] = Ox alone re-administered at 24 hours and 48 hours after a single NQ11/7.12 + Ox infusion
[5] = Ox with D1.3, biphasic elimination

## O=C(O)CCCNC=C1N=C(c2ccccc2)OC1=O [Ox, 2-phenyl-oxazol-5-one-γ-amino butyrate]
[1]; [3]
  free Ox elimination half-life in plasma: 6.0 ± 1 min
  initial free Ox concentration in plasma: 6.8 nM
[1]; Ox administered with NQ11/7.12
  free Ox concentration in plasma after an hour: 0.8 nM
  free Ox elimination half-life in plasma: 41 ± 6 min
  initial free Ox concentration in plasma: 2.2 nM
[1]; Ox administered with NQ16/113.8 or NQ22/16.4
  decline of free Ox concentration in plasma compared with NQ11/7.12: declined much more rapidly
[1]; [4]
  free Ox concentration in plasma, long term buffering: quickly normalized
[1]; Ox without anti-Ox antibody
  fraction of unbuffered Ox eliminated from plasma before the first timepoint: more than half
[2]; NQ11/7.12 vs D1.3
  increase in Ox half-life in plasma with anti-Ox antibody: seventeen-fold
[2]; Ox administered with NQ11/7.12, jugular vein cannula
  t1/2 of Ox (FIG. 6): 19.7 min
[2]; Ox administered with control antibody D1.3, jugular vein cannula
  t1/2 of Ox (FIG. 6): 1.2 min
[2]; [4]
  total Ox pharmacokinetic lifetime in plasma, long term buffering: only small changes
[2]; Ox alone, jugular infusion
  Ox elimination half-life from plasma: 1.2 min
[2]; Ox infused with NQ11/7.12 or D1.3, rats
  adverse effects in the animal subjects: No adverse effects were noted
[2]; [5]
  Ox elimination half-life from plasma, major (fast) phase: 1.2 ± 0.2 min
  Ox elimination half-life from plasma, smaller (slow) phase: 10 ± 2 min
[2]; Ox with twice the molar amount of NQ11/7.12
  Ox elimination half-life from plasma: 20 ± 2 min
[2]; rat, in vivo
  Ox concentration in the cellular fraction of blood, of the total Ox concentration in the plasma: 1-2%
